Reference: patent US11504363B2, “Method of treating cancer and bone cancer pain” (Exelixis, Inc., priority 2011, dated 2022)

Legend:
[1] = test system: CRPC patients with evidence of bone metastases on bone scan; test: Phase 2 adaptive trial NCT00940225, first three CRPC patients with bone metastases (Case Study 1); type: in vivo, human
Protocol: In 2000, local disease recurrence was treated with radiation therapy. […] CAB with leuprolide and bicalutamide was initiated.

[2] = test system: CRPC patients with bone metastases; test: Phase 2 adaptive randomized discontinuation trial (RDT), Case Study 2; type: in vivo, human; settings: for patients reporting improvements in bone pain: baseline bone pain; for patients achieving tumor regression / patients experiencing pain relief / patients reducing or eliminating need for narcotic analgesics / patients with marked declines in markers of bone turnover / patients free of disease progression at month 6: post hoc
Excerpt: Data on bone pain and narcotic use, as assessed by the investigator, were collected retrospectively.

[3] = test system: renal cell carcinoma with bone metastases; test: Phase I trial, renal cell carcinoma with bone metastases (Case Study 4); type: in vivo, human
[4] = test system: melanoma with bone metastases; test: Randomized discontinuation study, melanoma with bone metastases (Case Study 5); type: in vivo, human; settings: 39 of 65 patients
[5] = test system: breast cancer with bone metastases; test: Randomized discontinuation study, breast cancer with bone metastases (Case Study 6); type: in vivo, human; settings: of 10 evaluable for bone scan resolution (forty percent)
[6] = test system: differentiated thyroid cancer, bone metastasis to the skull; test: Phase 1 drug-drug trial, differentiated thyroid cancer with bone metastasis (Case Study 7); type: in vivo, human; settings: one patient, after 9 weeks of treatment
[7] = Phase 1 clinical study, tolerability; type: in vivo, human; settings: most common adverse events: fatigue, diarrhea, anorexia, rash, palmar-plantar erythrodysesthesia
xenograft tumor models = test: Xenograft tumor models; settings: in vivo
[8] = test system: pancreatic neuroendocrine tumor model; test: Murine pancreatic neuroendocrine tumor model; settings: mouse, in vivo
[9] = patients with bone scan resolution
[10] = patients without bone scan resolution

SMILES: COc1cc2nccc(Oc3ccc(NC(=O)C4(C(=O)Nc5ccc(F)cc5)CC4)cc3)c2cc1OC [Compound 1, N-(4-{[6,7-bis(methyloxy)quinolin-4-yl]oxy}phenyl)-N′-(4-fluorophenyl)cyclopropane-1,1-dicarboxamide]
- Bone scan (best response) ([1]; Patient 1): Complete resolution
- Hemoglobin (best response, change) ([1]; Patient 1): +1.4 g/dL
- PSA (best response, change) ([1]; Patient 1): −78%
- Pain (best response) ([1]; Patient 1): Improvement
- tALP (best response, change) ([1]; Patient 1): −77%
- radiotracer uptake by bone metastases on bone scan ([1]; Patient 1, Week 6): dramatic decrease
- bone lesions on bone scan ([1]; Patient 1, Week 12, stable through Week 18): near complete resolution
- adverse event leading to withdrawal ([1]; Patient 1, Week 18): Grade 3 diarrhea
- bone pain ([1]; Patient 1, four weeks after start): significant reduction
- Bone scan (best response) ([1]; Patient 2): Improvement
- Hemoglobin (best response, change) ([1]; Patient 2): +1.8 g/dL
- PSA (best response, change) ([1]; Patient 2): +61%
- Pain (best response) ([1]; Patient 2): Pain-free
- tALP (best response, change) ([1]; Patient 2): −6%
- bone pain ([1]; Patient 2, Week 4): reduction in bone pain
- radiotracer uptake by bone lesions on bone scan ([1]; Patient 2, Week 6): slight flair
- hemoglobin increase compared with baseline ([1]; Patient 2, Week 12): 1.8 g/dL
- radiotracer uptake on bone scan ([1]; Patient 2, Week 12): substantial reduction
- PSA peak ([1]; Patient 2, by Week 16, placebo from Week 12, crossed over to Compound 1 at Week 15): ~6 fold of baseline
- PSA ([1]; Patient 2, by Week 18, subsequent to crossing over to Compound 1 from placebo): 2 fold of baseline
- Bone scan (best response) ([1]; Patient 3): Near resolution
- Hemoglobin (best response, change) ([1]; Patient 3): +2.2 g/dL
- PSA (best response, change) ([1]; Patient 3): −57%
- Pain (best response) ([1]; Patient 3): Pain-free
- tALP (best response, change) ([1]; Patient 3): −77%
- hemoglobin increase compared with baseline ([1]; Patient 3, Week 2): 2.2 g/dL
- radiotracer uptake on bone scan ([1]; Patient 3, Week 6): dramatic reduction
- bone lesions on bone scan ([1]; Patient 3, Week 12): complete resolution of bone lesions
- pain ([1]; Patient 3, after three weeks): complete resolution of pain
- patients able to decrease or discontinue narcotic medication for bone pain ([2]; 47 of 67 patients on narcotic analgesics at baseline): 70%
- patients with pain improvement ([2]; 56 of 83 patients with bone metastases and bone pain at baseline, at either Week 6 or 12): 68%
- patients with resolution or stabilization of metastatic bone lesions on bone scan ([2]; 82 of 108 evaluable patients): 76%
- hemoglobin levels in anemic patients ([2]; anemic patients): Durable increases
- patients reporting improvements in bone pain ([2]; complete resolution by bone scan (n=10)): 80%
- patients reporting improvements in bone pain ([2]; partial resolution by bone scan (n=32)): 84%
- patients reporting improvements in bone pain ([2]; stabilization of disease by bone scan (n=13)): 38%
- median PFS ([2]; docetaxel-naïve patients (95% CI 24, upper limit not yet reached)): 24 weeks
- median PFS ([2]; docetaxel-pretreated patients (95% CI 18, 33)): 29 weeks
- patients with stable disease (SD) on bone scan ([2]; independent reviewer, 23 of n=108): 21%
- subjects with partial or complete resolution of bone scan ([2]; independent reviewer, 82 of n=108): 76%
- patients with progressive disease in bone as best assessment ([2]; independent reviewer, three of n=108): 3%
- median PFS ([2]; overall population excluding those randomized to placebo, n=154): 29 weeks
- patients achieving tumor regression [2, 9]: 78%
- patients experiencing pain relief [2, 9]: 83%
- patients reducing or eliminating need for narcotic analgesics [2, 9]: 68%
- patients with marked declines in markers of bone turnover [2, 9]: 60%
- patients free of disease progression at month 6 ([2]; patients with bone scan resolution (complete or partial)): 61%
- patients achieving tumor regression [2, 10]: 58%
- patients experiencing pain relief [2, 10]: 43%
- patients reducing or eliminating need for narcotic analgesics [2, 10]: 33%
- patients with marked declines in markers of bone turnover [2, 10]: 43%
- patients free of disease progression at month 6 ([2]; patients without bone scan resolution (stable or progressing bone scan)): 35%
- reduction in the risk of progression compared with placebo ([2]; randomized discontinuation phase): 87%
- investigator-assessed median PFS from week 12 onward ([2]; randomized discontinuation phase, patients with SD at week 12, Compound 1 group n=14 (95% CI: 11 weeks, upper limit not yet reached)): 21 weeks
- bone scan analysis ([3]; one patient (FIG. 4)): tumor shrinkage was observed
- narcotic use to control pain ([3]; same patient, by seven weeks, continued until week 25): substantially reduced narcotic use
- pain ([3]; second patient, pain score 5 on a scale of 10 at baseline, by four weeks, pain-free as of week 73): complete resolution of pain
- patients with tumor shrinkage based on bone scan analysis [4]: 60%
- patients with tumor shrinkage based on bone scan analysis [5]: 4 patients
- response of skull bone metastasis as judged by MRI [6]: dramatic response
- tolerability [7]: generally well-tolerated
- tumor effect in xenograft tumor models (xenograft tumor models): causes tumor regression
- overall survival [8]: substantially improves
- tumor invasiveness and metastasis [8]: significantly reduces
